These results are taken from publication PMC11108826 (Synthetic and Systems Biotechnology, 2024).

In the test the target is T1, ORF-L16 (Saccharopolyspora spinosa, UniProt Q9ALP2).
T1 sequence (Q9ALP2 1-278): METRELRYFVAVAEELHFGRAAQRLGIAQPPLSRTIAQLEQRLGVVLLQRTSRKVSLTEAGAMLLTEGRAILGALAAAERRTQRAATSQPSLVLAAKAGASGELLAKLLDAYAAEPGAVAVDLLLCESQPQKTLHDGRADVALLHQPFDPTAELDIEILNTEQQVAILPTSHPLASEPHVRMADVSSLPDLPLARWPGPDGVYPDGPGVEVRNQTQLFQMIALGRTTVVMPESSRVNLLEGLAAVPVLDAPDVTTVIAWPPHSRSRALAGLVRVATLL
Briefly: isothermal titration calorimetry. The test is classed as binding. In general terms: ITC needs no label: the signal is the heat of the interaction.

As a reminder, the Kd is the equilibrium constant for the complex coming apart. The low end stands for a tighter complex, the high end for a looser complex. The molecule `CC[C@H]1CCC[C@H](O[C@H]2CC[C@H](N(C)C)[C@@H](C)O2)[C@@H](C)C(=O)C2=C[C@@H]3[C@@H](C=C[C@@H]4C[C@@H](O[C@@H]5O[C@@H](C)[C@H](OC)[C@@H](OC)[C@H]5OC)C[C@@H]34)[C@@H]2CC(=O)O1` [spinosyn A] gave a Kd of 2360 ± 40 nM.
